From the supplement of paper PMC10627819

Key:
Experiment in all cases: Bliss interaction score (quartile over a dose matrix) (fitness difference); higher = more antagonism (negative = synergy)
[1] = system: B. subtilis 168
Procedure, shortened: (§1)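 The Bliss score was calculated by subtracting the expected fitness, the product of single-drug values, from the observed fitness. OD595 at entry into stationary phase, over the plate's robust no-drug mean and capped at 1, served as the fitness readout. Single-drug values were inferred from combination data, and scores are summarised by quartiles across technical, biological and donor/recipient replicates.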

[2] = system: S. aureus DSM 20231
Procedure, shortened: as §1

[3] = system: S. aureus Newman
Procedure, shortened: as §1

[4] = system: S. pneumoniae D39V
Procedure, shortened: as §1
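Further: first quartile when negative (synergy) and third quartile when positive (antagonism).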

Compound	Bliss interaction score [1]	Bliss interaction score [2]	Bliss interaction score [3]	Bliss interaction score [4]	Bliss interaction score ([1]; main component drawn)	Bliss interaction score ([2]; main component drawn)	Bliss interaction score ([3]; main component drawn)	Bliss interaction score ([4]; main component drawn)
COc1cccc2c1C(=O)c1c(O)c3c(c(O)c1C2=O)C[C@@](O)(C(=O)CO)C[C@@H]3O[C@H]1C[C@H](N)[C@H](O)[C@H](C)O1 [Doxorubicin] + CN[C@H](CC(C)C)C(=O)N[C@H]1C(=O)N[C@@H](CC(N)=O)C(=O)N[C@H]2C(=O)N[C@H]3C(=O)N[C@H](C(=O)N[C@H](C(=O)O)c4cc(O)cc(O)c4-c4cc3ccc4O)[C@H](O[C@H]3C[C@](C)(N)[C@@H](O)[C@H](C)O3)c3ccc(c(Cl)c3)Oc3cc2cc(c3O[C@@H]2O[C@H](CO)[C@@H](O)[C@H](O)[C@H]2O[C@H]2C[C@](C)(NCc3ccc(-c4ccc(Cl)cc4)cc3)[C@@H](O)[C@H](C)O2)Oc2ccc(cc2Cl)[C@H]1O [Oritavancin]	-0.0288	0.0678	0.114	0.0571	–	–	–	–
N#CC(C#N)=NNc1cccc(Cl)c1 [CCCP] + O=C1CN(/N=C/c2ccc([N+](=O)[O-])o2)C(=O)N1 [Nitrofurantoin]	-0.0566	-0.0278	-0.0479	-0.109	–	–	–	–
COc1cccc2c1C(=O)c1c(O)c3c(c(O)c1C2=O)C[C@@](O)(C(=O)CO)C[C@@H]3O[C@H]1C[C@H](N)[C@H](O)[C@H](C)O1 [Doxorubicin] + Oc1cc(Cl)ccc1Oc1ccc(Cl)cc1Cl [Triclosan]	-0.0317	-0.0295	-0.0426	-0.0416	–	–	–	–
CC1(C)S[C@@H]2[C@H](NC(=O)Cc3ccccc3)C(=O)N2[C@H]1C(=O)O [PenicillinG] + CO[C@H]1/C=C/O[C@@]2(C)Oc3c(C)c(O)c4c(O)c(c(/C=N/N5CCN(C)CC5)c(O)c4c3C2=O)NC(=O)/C(C)=C\C=C\[C@H](C)[C@H](O)[C@@H](C)[C@@H](O)[C@@H](C)[C@H](OC(C)=O)[C@@H]1C [Rifampicin]	0.0761	0.036	0.0252	-0.112	–	–	–	–
CN(C)[C@@H]1C(O)=C(C(N)=O)C(=O)[C@@]2(O)C(O)=C3C(=O)c4c(O)ccc(Cl)c4[C@@](C)(O)[C@H]3C[C@@H]12 [Clortetracycline] + CO[C@@]12[C@H](COC(N)=O)C3=C(C(=O)C(C)=C(N)C3=O)N1C[C@@H]1N[C@@H]12 [MitomycinC]	0.0447	-0.0551	0.104	-0.0402	–	–	–	–
CC(=O)Oc1ccccc1C(=O)O [Acetylsalicylicacid] + CCP(CC)CC.CC(=O)OC[C@@H]1[C@H]([C@@H]([C@H]([C@@H](O1)[S-])OC(=O)C)OC(=O)C)OC(=O)C.[Au+] [Auranofin]	0.0526	-0.0726	0.0597	0.0631	–	–	–	–
CC1(C)S[C@@H]2[C@H](NC(=O)Cc3ccccc3)C(=O)N2[C@H]1C(=O)O [PenicillinG] + CN[C@@H]1[C@H](O)[C@H](NC)[C@H]2O[C@@]3(O)C(=O)C[C@@H](C)O[C@H]3O[C@@H]2[C@H]1O [Spectinomycin]	0.0272	-0.0365	-0.0496	0.0325	–	–	–	–
CC1(C)S[C@@H]2[C@H](NC(=O)Cc3ccccc3)C(=O)N2[C@H]1C(=O)O [PenicillinG] + Cn1nnc(-c2ccc(-c3ccc(N4C[C@H](CO)OC4=O)cc3F)cn2)n1 [Tedizolid]	0.0625	0.057	-0.0888	0.106	–	–	–	–
O=C(O)c1cn(C2CC2)c2cc(N3CCNCC3)c(F)cc2c1=O [Ciprofloxacin] + O=C(O)[C@H]1/C(=C/CO)O[C@@H]2CC(=O)N21 [Clavulanic]	-0.154	-0.184	0.18	-0.0997	–	–	–	–
CO/N=C(\C(=O)N[C@@H]1C(=O)N2C(C(=O)O)=C(COC(N)=O)CS[C@H]12)c1ccco1 [Cefuroxime] + CC(=O)O[C@H]1C[C@@]2(C)[C@@H](C[C@@H](O)[C@H]3[C@@]4(C)CC[C@@H](O)[C@@H](C)[C@@H]4CC[C@@]32C)/C1=C(\CCC=C(C)C)C(=O)O [Fusidic acid]	0.137	-0.281	0.104	0.0348	–	–	–	–
CO/N=C(\C(=O)N[C@@H]1C(=O)N2C(C(=O)O)=C(COC(C)=O)CS[C@H]12)c1csc(N)n1 [Cefotaxime] + O=C(O)[C@H]1/C(=C/CO)O[C@@H]2CC(=O)N21 [Clavulanic]	-0.0436	0.176	0.279	-0.0534	–	–	–	–
CC1(C)S[C@@H]2[C@H](NC(=O)Cc3ccccc3)C(=O)N2[C@H]1C(=O)O [PenicillinG] + CC1=C\[C@@H](O)CC(=O)Cc2nc(co2)C(=O)N2CCC=C2C(=O)O[C@H](C(C)C)[C@H](C)/C=C/C(=O)NC\C=C\1 [Virginiamycin M1]	0.0479	-0.0526	0.0409	0.099	–	–	–	–
CO/N=C(\C(=O)N[C@@H]1C(=O)N2C(C(=O)O)=C(COC(N)=O)CS[C@H]12)c1ccco1 [Cefuroxime] + CN(C)[C@@H]1C(O)=C(C(N)=O)C(=O)[C@@]2(O)C(O)=C3C(=O)c4c(O)ccc(Cl)c4[C@@](C)(O)[C@H]3C[C@@H]12 [Clortetracycline]	-0.0786	-0.269	-0.0677	0.112	–	–	–	–
C[C@H]1c2cccc(O)c2C(=O)C2=C(O)[C@]3(O)C(=O)C(C(N)=O)=C(O)[C@@H](N(C)C)[C@@H]3[C@@H](O)[C@@H]21 [Doxycycline] + CC1(C)S[C@@H]2[C@H](NC(=O)Cc3ccccc3)C(=O)N2[C@H]1C(=O)O [PenicillinG]	0.108	0.0444	-0.027	0.106	–	–	–	–
N#CC(C#N)=NNc1cccc(Cl)c1 [CCCP] + CC(=O)O[C@H]1C[C@@]2(C)[C@@H](C[C@@H](O)[C@H]3[C@@]4(C)CC[C@@H](O)[C@@H](C)[C@@H]4CC[C@@]32C)/C1=C(\CCC=C(C)C)C(=O)O [Fusidic acid]	-0.18	0.0429	0.0673	0.122	–	–	–	–
CN(C)[C@@H]1C(O)=C(C(N)=O)C(=O)[C@@]2(O)C(O)=C3C(=O)c4c(O)ccc(Cl)c4[C@@](C)(O)[C@H]3C[C@@H]12 [Clortetracycline] + CC1=C\[C@@H](O)CC(=O)Cc2nc(co2)C(=O)N2CCC=C2C(=O)O[C@H](C(C)C)[C@H](C)/C=C/C(=O)NC\C=C\1 [Virginiamycin M1]	0.0837	-0.0704	-0.049	-0.0413	–	–	–	–
CO/N=C(\C(=O)N[C@@H]1C(=O)N2C(C(=O)O)=C(COC(N)=O)CS[C@H]12)c1ccco1 [Cefuroxime] + O=C1CN(/N=C/c2ccc([N+](=O)[O-])o2)C(=O)N1 [Nitrofurantoin]	-0.104	0.0612	-0.0317	0.0749	–	–	–	–
C[C@H]1c2cccc(O)c2C(=O)C2=C(O)[C@]3(O)C(=O)C(C(N)=O)=C(O)[C@@H](N(C)C)[C@@H]3[C@@H](O)[C@@H]21 [Doxycycline] + Oc1cc(Cl)ccc1Oc1ccc(Cl)cc1Cl [Triclosan]	-0.0554	-0.0352	0.0244	0.0668	–	–	–	–
CN(C)[C@@H]1C(O)=C(C(N)=O)C(=O)[C@@]2(O)C(O)=C3C(=O)c4c(O)ccc(Cl)c4[C@@](C)(O)[C@H]3C[C@@H]12 [Clortetracycline] + CC1(C)S[C@@H]2[C@H](NC(=O)Cc3ccccc3)C(=O)N2[C@H]1C(=O)O [PenicillinG]	0.123	0.0499	-0.0614	-0.0336	–	–	–	–
CN(C)[C@@H]1C(O)=C(C(N)=O)C(=O)[C@@]2(O)C(O)=C3C(=O)c4c(O)ccc(Cl)c4[C@@](C)(O)[C@H]3C[C@@H]12 [Clortetracycline] + CCCCCCCCCC(=O)N[C@@H]1[C@H]([C@@H]([C@H](O[C@H]1OC2=C3C=C4C=C2OC5=C(C=C(C=C5)[C@H]([C@H]6C(=O)N[C@@H](C7=C(C(=CC(=C7)O)OC8[C@H]([C@H]([C@@H]([C@H](O8)CO)O)O)O)C9=C(C=CC(=C9)[C@H](C(=O)N6)NC(=O)[C@@H]4NC(=O)[C@@H]1C2=CC(=CC(=C2)OC2=C(C=CC(=C2)[C@H](C(=O)N[C@H](CC2=CC(=C(O3)C=C2)Cl)C(=O)N1)N)O)O)O)C(=O)O)O[C@H]1[C@@H]([C@H]([C@@H]([C@H](O1)CO)O)O)NC(=O)C)Cl)CO)O)O [Teicoplanin]	–	–	–	–	0.0958	0.111	0.0527	-0.0412
CC(=O)Oc1ccccc1C(=O)O [Acetylsalicylicacid] + Cn1nnc(-c2ccc(-c3ccc(N4C[C@H](CO)OC4=O)cc3F)cn2)n1 [Tedizolid]	-0.184	-0.124	0.0641	0.0802	–	–	–	–
CC(=O)Oc1ccccc1C(=O)O [Acetylsalicylicacid] + O=C(O)c1cn(C2CC2)c2cc(N3CCNCC3)c(F)cc2c1=O [Ciprofloxacin]	0.146	0.142	0.158	0.144	–	–	–	–
CN(C)[C@@H]1C(O)=C(C(N)=O)C(=O)[C@@]2(O)C(O)=C3C(=O)c4c(O)ccc(Cl)c4[C@@](C)(O)[C@H]3C[C@@H]12 [Clortetracycline] + CC(=O)NC[C@H]1CN(c2ccc(N3CCOCC3)c(F)c2)C(=O)O1 [Linezolid]	-0.259	-0.0326	-0.0457	-0.0813	–	–	–	–
